Tests used:
TgCRND8 mice [1] = assay: Cerebral amyloid plaque burden (anti-Aβ immunostaining, image analysis); type: in vivo, mouse; settings: TgCRND8 mice at six months of age; vs untreated
Method: Cerebral amyloid burden. […] To generate sets of systematic uniform random sections, 5 μm serial sections were collected across the entire hemisphere. Sets of sections at 50 μm intervals were used for analyses (10-14 sections/set). Plaques were identified after antigen retrieval with formic acid, and incubation with primary anti-Aβ antibody (Dako M-0872), followed by secondary antibody (Dako StreptABCcomplex/horseradish kit). End products were visualized with DAB and were counter-stained with luxol fast blue. Amyloid plaque burden was assessed with Leco IA-3001 image analysis software interfaced with Leica microscope and Hitachi KP-M1U CCD video camera. Openlab imaging software (Improvision, Lexington, Mass.) was then used to convert micrographs to binary images for plaque number and plaque area determinations. Vascular amyloid burden was defined as amyloid originating from or surrounding blood vessels and was analysed similarly. Cerebral Aβ burden. […] Sets of sections at […] intervals for analyses (10-14 sections per set) were used. Plaques with primary Aβ-specific antibody (Dako M-0872) were identified and visualized with DAB. AP plaque burden was assessed with Openlab imaging software (Improvision) and used to convert micrographs to binary images for determinations of plaque number and plaque area. Vascular Aβ burden was defined as Aβ plaques originating from or surrounding blood vessels and was analyzed similarly. Cerebral Aβ burden. […] To generate sets of systematic uniform random sections, 5 μm serial sections were collected across the entire hemisphere. Sets of sections at 50 μm intervals were used for analyses (10-14 sections/set). Plaques were identified after antigen retrieval with formic acid, and incubation with primary anti-Aβ antibody (Dako M-0872), followed by secondary antibody (Dako StreptABCcomplex/horseradish kit). End products were visualized with DAB and were counter-stained with luxol fast blue. Aβ plaque burden was assessed with Leco IA-3001 image analysis software interfaced with Leica microscope and Hitachi KP-M1U CCD video camera. Openlab imaging software (Improvision, Lexington, Mass.) was then used to convert micrographs to binary images for plaque number and plaque area determinations. Vascular Aβ burden was defined as Aβ plaques originating from or surrounding blood vessels and was analyzed similarly.

TgCRND8 mice [2] = assay: Survival census (Kaplan-Meier); type: in vivo, mouse; settings: prophylactic treatment, vs untreated, n=35 per group
Method: (§1) Survival Census: The probability of survival was assessed by the Kaplan-Meier technique, computing the probability of survival at every occurrence of death, thus making it suitable for small sample sizes. For the analyses of survival, 35 mice were used for each treatment group. The Tarone-Ware test was used to assess effects of treatments.
as §1, with “census.” for “Census:”, “using” for “by”

TgCRND8 mice [3] = assay: Morris water maze spatial reference memory test; type: in vivo, mouse; settings: prophylactic, 6 weeks to 6 months of age
Method: Behavioural tests: Morris Water Maze testing was performed as previously described. After non-spatial pre-training, mice underwent place discrimination training for 5 days with 4-trials per day, followed by a cued visible platform to rule out general motivational, learning deficits and motor problems, and a probe trial to evaluate memory. […] Open field test for motor activity was preformed as described previously. Duration of walking, pausing and grooming were analyzed as indices of spontaneous locomotor activity. Sensorimotor function was examined with an EconomexTM accelerating rotarod (Columbus Instruments, Columbus, Ohio), as described elsewhere. The rod was set to accelerate at a rate of 0.2 r.p.m./s, from an initial, constant speed of 5 r.p.m. Latency to fall was recorded in four daily trials, conducted at 30 min intervals. All mice were trained for seven days before testing. The test day performance score for each animal was obtained by summing its latency to fall over the four trials Behavioral tests. Morris water maze testing was carried out as previously described. After nonspatial pretraining, mice underwent place discrimination training for 5 d with four trials per day, followed by a cued visible platform trial and a probe trial. An open-field test for motor activity was carried out as described previously. Sensorimotor function was assessed with an Economex accelerating rotarod (Columbus Instruments) as previously described. Behavioural tests. Morris Water Maze testing was performed as previously described. After non-spatial pre-training, mice underwent place discrimination training for 5 days with 4-trials per day, followed by a cued visible platform to rule out general motivational, learning deficits and motor problems, and a probe trial to evaluate memory. The probe trial was conducted at 72 h after the last testing, and used an annulus-crossing index to assess spatial recall. The annulus-crossing index measures the number of passes over the original platform position relative to passes over the other three quadrants. […] Open field test for motor activity was performed as described previously

Pilot in vivo studies = settings: data not shown
Aβ = Aβ (Homo sapiens, UniProt P05067); settings: reference [11]; cited from earlier work
Chain of Aβ (P05067 672-713 limits assumed): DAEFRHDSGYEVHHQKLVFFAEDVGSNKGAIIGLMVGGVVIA

[4] = 6-18 grams/day/adult or 86-257 mg/Kg/day; cited from earlier work
[5] = test system: mouse model of Huntington disease; settings: oral administration; reference [26]; cited from earlier work

OC[C@@H](O)[C@@H](O)[C@H](O)[C@H](O)CO [mannitol, reference compound]
plaque count as measure of total plaque burden (TgCRND8 mice [1]): indistinguishable from untreated TgCRND8 mice
survival (Kaplan-Meier cumulative survival) (TgCRND8 mice [2]): not significantly different
cognitive performance compared with non-Tg littermates (TgCRND8 mice [3]): significantly different from mannitol treated non-Tg littermates
cognitive performance compared with untreated TgCRND8 mice (TgCRND8 mice [3]): no effect on behavior
cognitive performance compared with untreated TgCRND8 mice (TgCRND8 mice [3]; listed as Mannitol): not significantly different from untreated TgCRND8 mice

O[C@H]1[C@H](O)[C@@H](O)[C@H](O)[C@@H](O)[C@H]1O [myo-cyclohexanehexol, 1,2,3,5/4,6-(myo-) cyclohexanehexol]
benefit in pilot in vivo studies (Pilot in vivo studies): no significant benefit
effectiveness in prior in vitro studies (Aβ): only weakly effective
toxicity [4]: no toxicity

OC[C@H]1O[C@H](O[C@H]2O[C@H](CO)[C@@H](O)[C@H](O)[C@H]2O)[C@H](O)[C@@H](O)[C@@H]1O [trehalose]
effects in mouse model of Huntington disease [5]: decreased polyglutamine aggregates in brain, improved motor dysfunction and extended lifespan

Source: US20070197452A1, “Treatment of amyloid-related diseases” (priority 2006, published 2007)
